What follows are molecules tested on B834(DE3) or CAG18491 hosts with pQE15/pREP4 or pQE15-MRS/pREP4 (assay: Translational activity: mDHFR synthesis, statements covering several bacterial hosts (with pQE15 or pQE15-MRS)). Details: amino acids at 60 mg/liter, both bacterial hosts.
Assay type: cell-based, E. coli
Experimental: Methionine analogues were synthesized via alkylation of diethylacetamidomalonate, as previously described (As described in Example I, infra; J. C. M. van Hest, D. A. Tirrell, FEBS Lett. 1998, 428, 68-70). Cultures of B834(DE3)/pQE15-MRS/pREP4 or B834(DE3)/pQE15/pREP4 or CAG18491/pQE15-MRS/pREP4 or CAG18491/pQE15/pREP4 in M9AA media were grown to an optical density of 0.90, and the cells were sedimented by centrifugation. The M9AA medium was prepared by supplementing sterile M9 medium with […] of each of the amino acids, 1 mM MgSO4, 0.2 wt % glucose, 1 mg/ml thiamine chloride, and […] calcium chloride. The antibiotics ampicillin and kanamycin were added at concentrations of 200 mg/l and 35 mg/l, respectively.
Cells were washed three times with M9 salts and resuspended to an optical density of 0.90 in M9 test media containing 19 amino acids plus 1) neither methionine nor analogue (negative control); 2) methionine (60 mg/liter, positive control); or 3) an analogue of interest (60 mg/liter). To test the effect of increasing the level of supplementation of the analogues, a set of experiments was also conducted in which the medium was supplemented with 500 mg/liter of methionine or the amino acid analogue. Expression of mDHFR was induced by addition of 0.4 mM isopropyl β-D-thiogalactopyranoside (IPTG), and protein synthesis was monitored after 4.5 hours.

SMILES	target protein mDHFR in SDS-PAGE
C=CCOC[C@H](N)C(=O)O (racemic) [Analogue 10, o-allylserine]	not observed
C#CCC(N)C(=O)O (stereo not drawn) [Analogue 13, propargylglycine]	not observed
NC(CCCC(F)(F)F)C(=O)O (racemic) [Analogue 6, DL-6,6,6-trifluoro-2-amino hexanoic acid]	not observed
